Values belong to the molecule of their own block, whether it stands above or below them.
Key:
KGSADH = target: T1, KGSADH (Caulobacter vibrioides, UniProt A0A0H3C801); experiment: NADH formation at […] nm; type: biochemical
T1 sequence (A0A0H3C801 1-478): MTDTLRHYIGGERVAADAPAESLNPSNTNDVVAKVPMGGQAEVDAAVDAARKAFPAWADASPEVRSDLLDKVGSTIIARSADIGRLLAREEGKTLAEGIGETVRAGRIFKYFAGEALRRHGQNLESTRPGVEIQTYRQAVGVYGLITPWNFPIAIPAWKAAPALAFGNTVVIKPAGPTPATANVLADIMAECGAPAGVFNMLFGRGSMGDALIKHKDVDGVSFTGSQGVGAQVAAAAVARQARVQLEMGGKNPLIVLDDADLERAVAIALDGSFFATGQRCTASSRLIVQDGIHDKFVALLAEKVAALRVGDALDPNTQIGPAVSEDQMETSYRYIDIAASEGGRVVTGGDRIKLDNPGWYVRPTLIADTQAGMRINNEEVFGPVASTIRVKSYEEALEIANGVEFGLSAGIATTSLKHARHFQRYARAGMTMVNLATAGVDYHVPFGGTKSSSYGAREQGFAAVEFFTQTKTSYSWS

XylC = XylC (Caulobacter vibrioides, UniProt A0A0H3C6P8); experiment: decrease of p-nitrophenol absorbance at […] nm; type: biochemical; conditions: spontaneous hydrolysis controlled
XDH = target: T2, XDH (Caulobacter vibrioides, UniProt B8H1Z0); experiment: NADH formation at […] nm; type: biochemical; conditions: 10 mM D-xylose, 1 mM NAD+, 37 °C
T2 sequence (B8H1Z0 1-248): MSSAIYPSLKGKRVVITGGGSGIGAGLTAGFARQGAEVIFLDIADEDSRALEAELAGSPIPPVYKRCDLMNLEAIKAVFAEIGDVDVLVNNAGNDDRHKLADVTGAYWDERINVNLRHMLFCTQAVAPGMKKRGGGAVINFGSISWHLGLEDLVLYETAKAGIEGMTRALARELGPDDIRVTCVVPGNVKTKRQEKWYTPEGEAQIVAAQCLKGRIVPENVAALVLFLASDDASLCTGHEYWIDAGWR

XylD = target: T3, XylD (Caulobacter vibrioides, UniProt A0A0H3C6H6); experiment: semicarbazone assay at […] nm; type: biochemical; conditions: 37 °C
T3 sequence (A0A0H3C6H6 1-591): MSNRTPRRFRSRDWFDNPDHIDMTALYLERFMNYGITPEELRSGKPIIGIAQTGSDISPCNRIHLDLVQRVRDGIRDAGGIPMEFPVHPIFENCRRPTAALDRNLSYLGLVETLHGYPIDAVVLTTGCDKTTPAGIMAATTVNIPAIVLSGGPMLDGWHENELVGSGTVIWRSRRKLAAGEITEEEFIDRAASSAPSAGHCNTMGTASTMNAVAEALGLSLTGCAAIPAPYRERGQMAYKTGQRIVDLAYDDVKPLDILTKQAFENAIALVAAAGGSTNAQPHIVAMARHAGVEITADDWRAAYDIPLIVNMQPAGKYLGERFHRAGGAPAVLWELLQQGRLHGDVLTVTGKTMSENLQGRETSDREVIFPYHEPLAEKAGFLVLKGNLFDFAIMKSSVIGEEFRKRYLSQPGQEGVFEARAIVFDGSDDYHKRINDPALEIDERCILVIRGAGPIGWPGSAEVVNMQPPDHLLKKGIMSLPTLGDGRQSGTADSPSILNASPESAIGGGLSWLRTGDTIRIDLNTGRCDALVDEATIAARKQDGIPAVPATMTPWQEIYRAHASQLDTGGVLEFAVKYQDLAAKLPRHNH

laccase (Lac) = target: T4, laccase (Lac) (Bacillus subtilis, UniProt P07788); experiment: ABTS oxidation at […] nm, whole cells; type: cell-based; conditions: 5 mM ABTS, 37 °C, pH optimum 5.0; surface-displayed enzyme
T4 sequence (P07788 1-513): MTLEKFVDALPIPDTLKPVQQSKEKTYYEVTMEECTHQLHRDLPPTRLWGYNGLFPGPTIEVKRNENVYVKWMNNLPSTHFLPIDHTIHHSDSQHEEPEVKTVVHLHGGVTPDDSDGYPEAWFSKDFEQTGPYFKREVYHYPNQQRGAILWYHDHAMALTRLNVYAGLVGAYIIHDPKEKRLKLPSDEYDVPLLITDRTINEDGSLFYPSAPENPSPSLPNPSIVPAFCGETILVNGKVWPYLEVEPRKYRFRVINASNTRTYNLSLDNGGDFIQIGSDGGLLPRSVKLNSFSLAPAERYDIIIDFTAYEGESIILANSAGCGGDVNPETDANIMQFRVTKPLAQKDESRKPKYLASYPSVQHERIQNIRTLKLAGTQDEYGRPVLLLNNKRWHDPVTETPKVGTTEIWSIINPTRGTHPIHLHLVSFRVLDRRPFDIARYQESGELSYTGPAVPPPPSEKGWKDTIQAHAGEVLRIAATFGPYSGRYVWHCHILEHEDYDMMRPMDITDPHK

Chain of XylC (A0A0H3C6P8 1-289): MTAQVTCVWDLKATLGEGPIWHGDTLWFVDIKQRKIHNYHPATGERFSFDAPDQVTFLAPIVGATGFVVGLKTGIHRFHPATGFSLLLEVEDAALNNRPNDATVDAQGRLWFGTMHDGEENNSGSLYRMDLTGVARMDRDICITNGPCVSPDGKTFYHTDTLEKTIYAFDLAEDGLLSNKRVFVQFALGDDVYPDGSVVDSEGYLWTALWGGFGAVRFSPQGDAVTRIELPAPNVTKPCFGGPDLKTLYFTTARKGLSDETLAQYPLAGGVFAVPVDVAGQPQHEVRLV

SMILES: O=CCCCC=O [glutaraldehyde]
NADH formation at 340 nm (KGSADH; NAD+, substitute substrate): monitored by measuring the generation of NADH using analogous glutaraldehyde as substrate

SMILES: O=C1O[C@H](CO)[C@H](O)[C@H]1O [xylono-1,4-lactone]
decrease of p-nitrophenol absorbance at 405 nm (XylC): To examine the activity of XylC, D-xylono-lactone was used as substrate to produce D-xylonic acid

SMILES: OC1OC[C@@H](O)[C@H](O)[C@H]1O (stereo partly drawn) [D-xylose]
NADH formation at 340 nm (XDH): D-xylose is oxidized into D-xylono-lactone and generates NADH catalyzed by XDH

NADH formation at 340 nm (XDH): catalyzed by XDH using NAD^+ as coenzyme
SMILES: NC(=O)c1ccc[n+]([C@@H]2O[C@H](COP(=O)(O)OP(=O)(O)OC[C@H]3O[C@@H](n4cnc5c(N)ncnc54)[C@H](O)[C@@H]3O)[C@@H](O)[C@H]2O)c1 [NAD^+]
NADH formation at 340 nm (KGSADH; glutaraldehyde as substrate): activity of KGSADH by following the rate of NAD^+ reduction

SMILES: O=C(O)[C@H](O)[C@@H](O)[C@H](O)CO [D-xylonic acid]
semicarbazone assay at 250 nm (XylD): D-xylonic acid would be transformed into 2-keto-3-deoxyxylic acid by XylD

SMILES: CCn1c(=NN=c2sc3cc(S(=O)(=O)O)ccc3n2CC)sc2cc(S(=O)(=O)O)ccc21 [ABTS, 2,2’-azino-bis (3-ethylbenzothiazoline-6-sulfonic acid)]
ABTS oxidation at 420 nm, whole cells (laccase (Lac)): The oxidation activity of E. coli-Lac towards ABTS was calibrated by measuring the absorbance

Source: publication PMC11464693 (Nature Communications, 2024)
